{"source": "patent US20090286787A1", "about": "“SUBSTITUTED GAMMA LACTAMS AS THERAPEUTIC AGENTS” (ALLERGAN, INC., priority 2008, published 2009)", "tested_on": "lashes and adjacent hairs of patients", "assay": "lash and hair appearance in glaucoma patients treated in only one eye", "assay_type": "in vivo, human", "conditions": "unilateral treatment", "description": "In the course of treating patients having glaucoma, treatment may only be appropriate in one eye. […] The lash appearance on the lids of the treated eyes would have appeared quite attractive if it represented a bilateral phenomenon. As a result of its asymmetric nature, the long lashes on one side could be construed as disturbing from a cosmetic standpoint. A systemic examination was preformed as a result of the asymmetric phenomenon. It soon became apparent that this altered appearance was not an isolated finding. […] Definite differences could be identified to varying degrees in the lashes and adjacent hairs of all patients who were taking the drug on a unilateral basis for longer than 6 months.\nThe changes in the lashes were apparent on gross inspection in several patients once attention was focused on the issue. In those with light colored hair and lashes, the differences were only seen easily with the aid of the high magnification and lighting capabilities of the slit lamp biomicroscope. In the course of glaucoma follow-up examination, attention is generally immediately focused on the eye itself. As a result of the high power magnification needed only one eye is seen at a time and the eye is seen at a high enough power that the lashes are not in focus. […]"}
{"smiles": "CCNC(=O)CCC/C=C\\C[C@@H]1[C@@H](/C=C/[C@@H](O)CCc2ccccc2)[C@H](O)C[C@@H]1O", "note": "[bimatoprost]", "values": [{"measurement": "lash growth, treated eye versus non-treated eye", "value": "longer, thicker, and fuller in the treated eye than in the non-treated eye"}]}
